Data set [1] can be described thus: DPPH radical scavenging method (antioxidant activity). The note with it: for IC50ug/ml (DPPH scavenging): 0.1 mM DPPH in ethanol, 30 minutes, absorbance 517 nm, triplicate; for IC50: IC50 ug/ml converted with molecular wt. As for the experimental part: The antioxidant activity of the newly synthesized compounds was evaluated using DPPH (2, 2-diphenyl-1-picrylhydrazyl (DPPH) assay). This assay measures the ability of a compound to neutralize the stable free radical DPPH by donating an electron or hydrogen atom. The results are illustrated in Table 2 and Fig 3. All the tests and analyses were undertaken in three replicates, and the results were averaged.
Different compounds’ free radical scavenging activity was measured by 1, 1- diphenyl-2-[…] (DPPH). In brief, a 0.1 mM solution of DPPH in ethanol was prepared. This solution (1 ml) was added to 3 ml. of the different compounds in ethanol at various concentrations (3.9, 7.8, 15.62, 31.25, 62.5, 125, 250, 500, 1000 μg/ml). Here, only those compounds solubilized in ethanol and their various concentrations were prepared by dilution. The mixture was shaken vigorously and allowed to stand at room temperature for 30 minutes. Then, absorbance was measured at 517 nm by using a spectrophotometer (UV-VIS Milton Roy). The reference standard compound used was ascorbic acid, and the experiment was done in triplicate. The IC 50 value of the sample, which is the concentration of sample required to inhibit 50% of the DPPH free radical, was calculated using the Log dose inhibition curve. The lower absorbance of the reaction mixture indicates higher free radical activity. The percent DPPH scavenging effect was calculated using the following equation: DPPH scavenging effect (%), or percent inhibition = A0 - A 1/ A0 × 100. A0 is the absorbance of the control reaction, and A1 is the absorbance in the presence of a test or standard sample [39].
Background: DPPH is a stable violet radical that fades when it is reduced.

A further data set deals with hERG. The conditions noted are these: similar compounds listed by Pred-hERG/LabMol, Fig 9 and Fig 10, reference not given; cited from earlier work. (hERG is a cardiac potassium channel; its block is linked to QT prolongation.)
A short description of data set [2]: Hemolytic assay (HRBC membrane stabilization, anti-inflammatory activity). Type of data set: cell-based, human. The conditions noted are these: human, human red blood cells, 2% suspension, pH 7.4, 2% RBC, 1 hour 37°C; for hemolysis at 1 h, 100 ug/ml: Conc. 100 ug/ml; for hemolysis at 1 h, 200 ug/ml: Conc. 200 ug/ml; for hemolysis at 1 h, 400 ug/ml: Conc. 400 ug/ml; for hemolysis at 1 h, 600 ug/ml: Conc. 600 ug/ml; for hemolysis at 1 h, 800 ug/ml: Conc. 800 ug/ml; for hemolysis at 1 h, 1000 ug/ml: Conc. 1000 ug/ml. As for the experimental part: (§1) The hemolysis essay of the synthesized compounds is summarized in Table 3 and Fig 4; the mean absorption rate of the samples, with isotonic solution Ab, and hemolysis % were calculated with a standard deviation. HRBC and membrane stabilization assay results provide valuable information about the potential anti-inflammatory effects of the newly synthesized pyrimidine carbonitrile derivatives. […] The results for the anti-inflammatory activity are in agreement and homogenous with those obtained from the antioxidant activity of the same compounds, as shown in Table 3. The interconnection between inflammation and oxidative stress plays a vital role in the induction of several chronic diseases, such as diabetes, rheumatoid arthritis, and inflammatory bowel disease—inflammation results in the release of inflammatory mediators and, subsequently, tissue damage. Oxidative stress occurs due to an imbalance between the production of the reactive oxygen species and the ability of the body to neutralize them. Several cellular mechanisms are involved in the anti-inflammatory activity of the tested compounds. […] The cellular mechanism of action was detected by suppression of myeloperoxidase and granulocyte superoxide formation. […] In addition, other mechanisms may explain the anti-inflammatory activity through the inhibitory effect on […] and lipo-oxygenase enzymes.
(§2) The hemolytic assay was performed using the method reported in [37, 40, 41]. Freshly collected human red blood cells were washed thrice with 150 mM NaCl (2500 rpm for 10 minutes). The plasma was removed, and the cells were suspended in phosphate buffer saline (pH 7.4) for 2% RBC concentration. Double-folded dilution concentrations (1000, 800, 600, 400, 200, 100, 50 μg/ml) of the compound were mixed with […] of RBC solutions, and the final reaction mixture volume was measured up to 1 ml by adding PBS. The reaction mixture was then placed in the water bath for 1 hour at 37°C. After incubation, the reaction mixture was centrifuged at 2500 rpm for 15 minutes. The supernatant was collected, and the optical density was measured at 541 nm, keeping the phosphate buffer saline blank. Deionized water was used as a positive control. The experiment was carried out in triplicate, and the mean ± SD was calculated.
(§3) Percentageofhemolysis=Absorbanceofsample−Absorbanceofblank×100/Absorbanceofpositivecontrol

Another data set concerns human red blood cells. The data set is described as above. The data set is classed as cell-based. The conditions noted are these: Conc. 100 ug/ml, 2% RBC, 1 hour 37°C. On the procedure: as §1, §2, §3

Values after ≈ are worked out from the molar mass of the structure shown.

The term IC50 denotes the midpoint of a concentration-inhibition curve. High values mean weaker potency in that assay, low ones greater potency in that assay. For `O=C1O[C@H]([C@@H](O)CO)C(O)=C1O` [Ascorbic acid, reference compound], in data set [1], the “IC50ug/ml (DPPH scavenging)” value was determined as 4.63 µg/mL (≈ 26.3 µM) and half-maximal inhibition (IC50) was put at 26.3 µM.
As for `Cc1cc(C=C2SC(=Nc3ccccc3)NC2=O)c(C)n1-c1ccccc1` [CHEMBL599702], the “hERG Blocker / Non-Blocker annotation of similar compounds” value (“hERG Blocker / Non-Blocker annotation” for short) in the data set with hERG is listed as “Non-Blocker”.
Take `N#Cc1c(-c2ccccc2)cc(-c2ccccc2)nc1N=c1sc(C(=O)Nc2ccccc2)nn1-c1ccccc1` [CHEMBL3408390]: the “hERG Blocker / Non-Blocker annotation” value in the data set with hERG is recorded as “Blocker”.
As for `N#Cc1c(-c2ccccc2)cc(-c2ccccc2)nc1N=C1SC(=C2SC(c3ccccc3)=NN2c2ccccc2)C(=O)N1c1ccccc1` [CHEMBL3408393], the “hERG Blocker / Non-Blocker annotation” value in the data set on hERG is reported as “Blocker”.
Consider `CC(=O)C1=NN(c2ccccc2)C(=C2SC(=Nc3nc(-c4ccccc4)cc(-c4ccccc4)c3C#N)N(c3ccccc3)C2=O)S1` [CHEMBL3408394], for which, in the data set on hERG, the “hERG Blocker / Non-Blocker annotation” value was “Blocker”.
In the case of `CCOC(=O)C1=NN(c2ccccc2)C(=C2SC(=Nc3nc(-c4ccccc4)cc(-c4ccccc4)c3C#N)N(c3ccccc3)C2=O)S1` [CHEMBL3408395], the “hERG Blocker / Non-Blocker annotation” value in the data set with hERG was “Blocker”.
In the case of `N#Cc1c(-c2ccccc2)cc(-c2ccccc2)nc1N=C1SC(=C2SC(C(=O)Nc3ccccc3)=NN2c2ccccc2)C(=O)N1c1ccccc1` [CHEMBL3408396], the “hERG Blocker / Non-Blocker annotation” value in the data set with hERG is recorded as “Blocker”.
Consider `N#Cc1ccc(C2NC(=S)NC(=O)C2C#N)cc1` (centres unmarked) [Compound 1, 4-(4-cyanophenyl)-6-oxo-2-thioxohexahydropyrimidine-5-carbonitrile], for which, in data set [2], the hemolysis at 1 h, 100 ug/ml was determined as 7.5%; the hemolysis at 1 h, 200 ug/ml was determined as 9.5%; the hemolysis at 1 h, 400 ug/ml is 12%; the hemolysis at 1 h, 600 ug/ml came to 12.4%. Besides, in data set [2], the hemolysis at 1 h, 800 ug/ml was 13.2% and the hemolysis at 1 h, 1000 ug/ml stood at 13.9%. For the same compound, in data set [1], the “IC50ug/ml (DPPH scavenging)” value is 25.13 µg/mL (≈ 98.1 µM) and 98.1 µM corresponded to half-maximal inhibition (IC50).
As to `CSC1=NC(c2ccc(C#N)cc2)C(C#N)C(=O)N1` (centres unmarked) [Compound 2, 4-(4-Cyanophenyl)-2-(methylthio)-6-oxo-1,4,5,6-tetrahydro pyrimidine-5-carbonitrile], the Hemolysis % entry with human red blood cells is “no hemolysis”. In data set [2], this compound displayed a hemolysis at 1 h, 100 ug/ml of 0%; a hemolysis at 1 h, 200 ug/ml of 0.1%; a hemolysis at 1 h, 400 ug/ml of 0.1%; a hemolysis at 1 h, 600 ug/ml of 0.3%. Also, in data set [2], the hemolysis at 1 h, 800 ug/ml stood at 0.3% and the hemolysis at 1 h, 1000 ug/ml was 2.2%. Moreover, in data set [1], the “IC50ug/ml (DPPH scavenging)” value was determined as 10.09 µg/mL (≈ 37.3 µM).
Turning to `N#CCSC1=NC(c2ccc(C#N)cc2)C(C#N)C(=O)N1` (centres unmarked) [Compound 3, 2-((Cyanomethyl)thio)-4-(4-cyanophenyl)-6-oxo-1,4,5,6-trtrahydropyrimidine-5-carbonitrile], in data set [2], the hemolysis at 1 h, 100 ug/ml is 0.1%; the hemolysis at 1 h, 200 ug/ml is 0.3%; the hemolysis at 1 h, 400 ug/ml is 0.7%; the hemolysis at 1 h, 600 ug/ml is 1.2%. Moreover, in data set [2], the hemolysis at 1 h, 800 ug/ml was found to be 2.3%. Moreover, in data set [1], the “IC50ug/ml (DPPH scavenging)” value was 35.9 µg/mL (≈ 122 µM) and the midpoint of inhibition, the IC50, lay at 122 µM.
In data set [2], `CC(=O)CSC1=NC(c2ccc(C#N)cc2)C(C#N)C(=O)N1` (centres unmarked) [Compound 4, 4-(4-Cyanophenyl)-6-oxo-2-((2-oxo-propyl)thio)-1,4,5,6-tetrahydro-pyrimidine-5-carbonitrile] yielded a hemolysis at 1 h, 100 ug/ml of 1.3%; a hemolysis at 1 h, 200 ug/ml of 1.8%; a hemolysis at 1 h, 400 ug/ml of 3.6%; a hemolysis at 1 h, 600 ug/ml of 5.9%. In data set [2], this compound showed a hemolysis at 1 h, 800 ug/ml of 7.8% and a hemolysis at 1 h, 1000 ug/ml of 9.3%. For the same compound, in data set [1], the “IC50ug/ml (DPPH scavenging)” value amounted to 35.31 µg/mL (≈ 113 µM) and the half-maximal inhibitory concentration (IC50) came to 113 µM.
For `N#Cc1ccc(C2N=C3SCC=C(N)N3C(=O)C2C#N)cc1` (centres unmarked) [Compound 5, 4-Amino-8-(4-cyanophenyl)-6-oxo-7,8-dihydro-2H,6H-pyrimido[2,1-b][1,3]thiazine-7-carbonitrile], in data set [2], the hemolysis at 1 h, 100 ug/ml is 0.2%; the hemolysis at 1 h, 200 ug/ml was found to be 0.4%; the hemolysis at 1 h, 400 ug/ml was found to be 1.4%; the hemolysis at 1 h, 600 ug/ml came to 5.5%. For the same compound, in data set [2], the hemolysis at 1 h, 800 ug/ml worked out at 5.9% and the hemolysis at 1 h, 1000 ug/ml turned out to be 7%. Also, in data set [1], the “IC50ug/ml (DPPH scavenging)” value is 5.62 µg/mL (≈ 18.2 µM) and the IC50 is 18.2 µM.
Take `N#Cc1ccc(C2N=C3SCC(=O)N3C(=O)C2C#N)cc1` (centres unmarked) [Compound 6, 7-(4-Cyanophenyl)-3,5-dioxo-2,3,6,7-tetrahydro-5H-thiazolo[3,2-a]pyrimidine-6-carbonitrile]: in data set [2], the hemolysis at 1 h, 100 ug/ml worked out at 2.1%; the hemolysis at 1 h, 200 ug/ml amounted to 3.1%; the hemolysis at 1 h, 400 ug/ml stood at 4%; the hemolysis at 1 h, 600 ug/ml came out at 4.6%. For the same compound, in data set [2], the hemolysis at 1 h, 800 ug/ml stood at 12.8% and the hemolysis at 1 h, 1000 ug/ml turned out to be 14.3%. The “IC50ug/ml (DPPH scavenging)” value in data set [1] was 46.69 µg/mL (≈ 158 µM).
As for `N#Cc1ccc(C2N=C(Nc3nc4ccccc4s3)NC(=O)C2C#N)cc1` (centres unmarked) [Compound 8, 2-(Benzo[d]thiazol-2-ylamino)-4-(4-cyanophenyl)-6-oxo-1,4,5,6-tetrahydro pyrimidine-5-carbonitrile], the Hemolysis % result in the data set with human red blood cells is “no hemolysis”. In data set [2], this compound yielded a hemolysis at 1 h, 100 ug/ml of 0%; a hemolysis at 1 h, 200 ug/ml of 0.1%; a hemolysis at 1 h, 400 ug/ml of 0.9%; a hemolysis at 1 h, 600 ug/ml of 1.3%. Moreover, in data set [2], the hemolysis at 1 h, 800 ug/ml stood at 3% and the hemolysis at 1 h, 1000 ug/ml was 3.7%. Moreover, in data set [1], the “IC50ug/ml (DPPH scavenging)” value was found to be 6.21 µg/mL (≈ 16.7 µM) and the IC50 was 16.7 µM.
In data set [2], `N#Cc1ccc(C2N=C(NNc3ccccc3)NC(=O)C2C#N)cc1` (centres unmarked) [Compound 9, 4-(4-Cyanophenyl)-6-oxo-2-(2-phenylhydrazine)-1,4,5,6-tetrahydro pyrimidine-5-carbonitrile] displayed a hemolysis at 1 h, 100 ug/ml of 2.9%; a hemolysis at 1 h, 200 ug/ml of 4.3%; a hemolysis at 1 h, 400 ug/ml of 5%; a hemolysis at 1 h, 600 ug/ml of 9%. In data set [2], this compound gave a hemolysis at 1 h, 800 ug/ml of 10% and a hemolysis at 1 h, 1000 ug/ml of 14.4%. In data set [1], the “IC50ug/ml (DPPH scavenging)” value turned out to be 212.28 µg/mL (≈ 643 µM) and the IC50 is 643 µM.
